According to paper PMC11502347 (Frontiers in Microbiology, 2024):
Values after ≈ are worked out from the molar mass of the structure shown.

Key:
[1] = system: Mtb H37Rv; experiment: microbe, parasite or virus in culture; format: cell-based, Mycobacterium tuberculosis; conditions: for CIM90 Mtb H37Rv: Sensitive strain, REMA, 7 days; for MIC90: Mycobacterium tuberculosis, H37RV, Table 3
[2] = system: Mtb CF 105 (MDR); format: cell-based, Mycobacterium tuberculosis; conditions: MDR clinical isolate; REMA, 7 days
[3] = system: M. bovis; format: cell-based, Mycobacterium bovis; conditions: Sensitive; REMA, 7 days
[4] = system: Mtb CF 162 (MDR); format: cell-based, Mycobacterium tuberculosis; conditions: MDR clinical isolate; REMA, 7 days
[5] = system: M. smegmatis; format: cell-based, Mycobacterium smegmatis; conditions: Sensitive; REMA, 2 days
[6] = system: Mtb CF 171 (MDR); format: cell-based, Mycobacterium tuberculosis; conditions: MDR clinical isolate; REMA, 7 days
[7] = system: Mtb CF 48 (MDR); format: cell-based, Mycobacterium tuberculosis; conditions: MDR clinical isolate; REMA, 7 days
[8] = system: Mtb CF 165 (MDR); format: cell-based, Mycobacterium tuberculosis; conditions: MDR clinical isolate; REMA, 7 days
[9] = system: Mtb CF 81 (Pre-XDR); format: cell-based, Mycobacterium tuberculosis; conditions: Pre-XDR clinical isolate; REMA, 7 days
[10] = system: Mtb CF 169 (Pre-XDR); format: cell-based, Mycobacterium tuberculosis; conditions: Pre-XDR clinical isolate; REMA, 7 days
[11] = system: intramacrophagic Mtb; set-up: method as in Matsumoto et al. (2006); conditions: at a concentration of 1 μg/mL; experimental conditions not identical; ref Matsumoto et al. (2006); cited from earlier work
[12] = system: Murine macrophage J774.A1; experiment: cells; format: cell-based; conditions: Mus musculus, cytotoxicity, resazurin, exposure 24 and 72 h, which one not given
[13] = system: Staphylococcus saprophyticus subsp. saprophyticus ATCC 15305; experiment: microbe, parasite or virus in culture; format: cell-based; conditions: ATCC15305
[14] = system: Mtb CF 61 (MDR); format: cell-based, Mycobacterium tuberculosis; conditions: MDR clinical isolate; REMA, 7 days
[15] = system: MRC-5 fibroblasts; experiment: cells; format: cell-based; conditions: Homo sapiens, MRC5; cytotoxicity, resazurin; exposure 24 and 72 h, which one not given
[16] = system: Proteus mirabilis ATCC 29906 T; experiment: microbe, parasite or virus in culture; format: cell-based; conditions: ATCC29906
[17] = system: Klebsiella oxytoca CCT 0182; experiment: microbe, parasite or virus in culture; format: cell-based; conditions: CCT0182
[18] = system: Gram-negative, Gram-positive bacteria, and fungi, including Candida albicans; experiment: microbe, parasite or virus in culture; format: cell-based; conditions: all the bacterial and fungal strains tested (Table 2), read-out: MIC90 for all species analyzed
[19] = system: Enterococcus faecium NCTC 7171 T; experiment: microbe, parasite or virus in culture; format: cell-based; conditions: NCTC7171
[20] = system: intracellular Mtb H37Rv in J774.A1 macrophages; experiment: Intracellular antimycobacterial activity in infected macrophages; format: cell-based, Mycobacterium tuberculosis; conditions: 10x MIC, 72 h, CFU count
Description: Murine macrophage J774.A1 cells (1 × 10^6 cells/mL) were seeded in 24-well plates and incubated as previously described. After 24 h, the supernatant was discarded, and 1 mL of Mtb inoculum (2 × 10^6 CFU/mL) was added to the wells. The plate was incubated for 2 h to facilitate infection. Subsequently, the supernatant was removed, and the cells were washed with PBS. An amikacin solution (200 μg/mL) was added to ensure the sterility of the extracellular environment. After 2 h, the wells were washed, and treatments were applied (1x, 5x, and 10x MIC90 of Bfx or RFP). The cultures were then incubated for 72 h. After incubation, the cells were lysed using a Triton solution, and the supernatant was collected, serially diluted, and plated on Middlebrook 7H11 medium supplemented with 10% OADC. These plates were incubated for 20–30 days until colony-forming units (CFU) were counted ([Solcia et al., 2021]).

[21] = system: Candida albicans ATCC 90028; experiment: microbe, parasite or virus in culture; format: cell-based; conditions: ATCC90028, Sabouraud broth, 48 h
[22] = system: Klebsiella pneumoniae subsp. pneumoniae ATCC 13883 T; experiment: microbe, parasite or virus in culture; format: cell-based; conditions: ATCC13883
[23] = system: Mtb H37Rv; experiment: In vivo infection and treatment, BALB/c mice; conditions: daily oral 4 weeks, 5n 200 mg/kg, RFP 15 mg/kg; for reduction of bacterial load in the lungs: intranasal infection, 5b
[24] = system: Citrobacter freundii ATCC 8030 T; experiment: microbe, parasite or virus in culture; format: cell-based; conditions: ATCC8030
[25] = system: Staphylococcus epidermidis ATCC 14990 T; experiment: microbe, parasite or virus in culture; format: cell-based; conditions: ATCC14990
[26] = system: Enterobacter cloacae subsp. cloacae ATCC 13883 T; experiment: microbe, parasite or virus in culture; format: cell-based; conditions: ATCC13883
[27] = system: Enterobacter aerogenes ATCC 13048 T; experiment: microbe, parasite or virus in culture; format: cell-based; conditions: Klebsiella aerogenes, ATCC13048
[28] = system: Enterococcus faecalis ATCC 29212; experiment: microbe, parasite or virus in culture; format: cell-based; conditions: ATCC29212
[29] = system: Mtb H37Rv; experiment: Checkerboard assay of Bfx with RFP; format: cell-based, Mycobacterium tuberculosis; conditions: for MIC90: Mycobacterium tuberculosis, H37RV, compound alone, Table S1
Description: To evaluate the interaction between Bfx and RFP, a checkerboard assay was conducted following the methodology proposed by Berenbaum ([Berenbaum, 1978]).Test compounds were serially diluted in Middlebrook 7H9 broth and arranged in a 96-well plate, starting with 2x MIC for each compound. RFP was also diluted horizontally based on its MIC90. The combinations of different concentrations of Bfx and RFP were incubated with Mtb (5 × 10⁵ CFU/mL) at 37°C and 5% CO₂ for 7 days. Post-incubation, 0.01% resazurin was added, and fluorescence readings were taken after 24 h to determine the Fractional Inhibitory Concentration Index (FICI). The combined effects of the compound combinations were classified according to the Fractional Inhibitory Concentration Index (FICI):
FICI=MICofdrug1incombination/MICofdrug1+MICofdrug2incombination/MICofdrug1

## CC(=O)NC[C@H]1CN(c2ccc(N3CCOCC3)c(F)c2)C(=O)O1 [LNZ, linezolid]
[1]
  CIM90 Mtb H37Rv: 0,5 ± 0,20 μM
[2]
  CIM90 CF 105: 4,15 ± 0,52 μM
[3]
  CIM90 M. bovis: 0,25 ± 0,1 μM
[4]
  CIM90 CF 162: 0,41 ± 0,03 μM
[5]
  CIM90 M. smegmatis: 1,0 ± 0,20 μM
[6]
  CIM90 CF 171: 0,58 ± 0,02 μM
[7]
  CIM90 CF 48: 33,88 ± 1,27 μM
[8]
  CIM90 CF 165: 0,95 ± 0,01 μM
[9]
  CIM90 CF 81: 0,47 ± 0,32 μM
[10]
  CIM90 CF 169: 0,95 ± 0,59 μM

## O=[N+]([O-])c1cn2c(n1)OC[C@@H](OCc1ccc(OC(F)(F)F)cc1)C2 [pretomanid]
[11]
  intramacrophagic inhibition: 0.2 log₁₀ CFU/mL

## O=C(Nc1ccc(N2CCSCC2)c(F)c1)c1ccc2no[n+]([O-])c2c1 [Compound 5b]
[12]
  IC50: 40.8 µM
[1]
  MIC90: 0.7 µM (≈ 0.262 µg/mL)
[2]
  CIM90 CF 105: > 66,78 μM
[13]
  MIC90: > 200 µM
[14]
  CIM90 CF 61: 0,28 ± 0,02 μM
[15]
  IC50: 57.1 µM
[16]
  MIC90: > 200 µM
[5]
  CIM90 M. smegmatis: 24,17 ± 13,00 μM
[17]
  MIC90: > 200 µM
[18]
  MIC90: > 200 µM
[19]
  MIC90: > 200 µM
[20]
  inhibition of bacterial load within macrophages: 2.3 log10
[7]
  CIM90 CF 48: 22,76 ± 13,20 μM
[21]
  MIC90: > 200 µM
[22]
  MIC90: > 200 µM
[23]
  reduction of bacterial load in the lungs: 1.45 log10
[24]
  MIC90: > 200 µM
[25]
  MIC90: > 200 µM
[9]
  CIM90 CF 81: 0,27 ± 0,00 μM
[10]
  CIM90 CF 169: 0,40 ± 0,03 μM
[26]
  MIC90: > 200 µM
[27]
  MIC90: > 200 µM
[28]
  MIC90: > 200 µM
[29]; Bfx combined with RFP
  FICI: 0.11
  Results (interaction with RFP): Synergistic (FICI values less than 0.5 indicate synergy)
[29]
  MIC90: 0.7 µM
[29]; in the combination 5b + RFP
  MIC90 combined: 0,0625 µM

## C[C@]1(COc2ccc(N3CCC(Oc4ccc(OC(F)(F)F)cc4)CC3)cc2)Cn2cc([N+](=O)[O-])nc2O1 [delamanid]
[11]
  intramacrophagic inhibition: 0.7 log₁₀ CFU/mL

## CO[C@H]1/C=C/O[C@@]2(C)Oc3c(C)c(O)c4c(O)c(c(/C=N/N5CCN(C)CC5)c(O)c4c3C2=O)NC(=O)/C(C)=C\C=C\[C@H](C)[C@H](O)[C@@H](C)[C@@H](O)[C@@H](C)[C@H](OC(C)=O)[C@@H]1C [RFP, rifampicin]
[12]
  IC50: > 122 µM
[1]
  MIC90: 0.05 µM (≈ 0.0411 µg/mL)
  CIM90 Mtb H37Rv: 0,05 ± 0,01 μM
[2]
  CIM90 CF 105: > 30,38 μM
[3]
  CIM90 M. bovis: 0,10 ± 0,01 μM
[13]
  MIC90: 0.009 µM (≈ 0.00741 µg/mL)
[4]
  CIM90 CF 162: > 30,38 μM
[14]
  CIM90 CF 61: > 30,38 μM
[15]
  IC50: > 122 µM
[16]
  MIC90: 19.4 µM (≈ 16 µg/mL)
[5]
  CIM90 M. smegmatis: 1,21 ± 0,00 μM
[17]
  MIC90: 7.5 µM (≈ 6.17 µg/mL)
[19]
  MIC90: > 100 µM
[6]
  CIM90 CF 171: > 30,38 μM
[20]
  inhibition of bacterial load within macrophages: 0.7 log10
[7]
  CIM90 CF 48: > 30,38 μM
[8]
  CIM90 CF 165: > 30,38 μM
[22]
  MIC90: 5.1 µM (≈ 4.2 µg/mL)
[23]; abstract
  reduction of the pulmonary load: 1.23 log10 CFU/mL
[23]
  reduction of bacterial load in the lungs: 1.23 log10
[24]
  MIC90: 38.9 µM (≈ 32 µg/mL)
[25]
  MIC90: 0.001 µM (≈ 0.000823 µg/mL)
[9]
  CIM90 CF 81: > 30,38 μM
[10]
  CIM90 CF 169: 6,95 ± 0,19 μM
[26]
  MIC90: > 100 µM
[27]
  MIC90: > 100 µM
[28]
  MIC90: 0.004 µM (≈ 0.00329 µg/mL)
[29]
  MIC90: 0.05 µM
[29]; in the combination 5b + RFP
  MIC90 combined: 0,00098 µM
[29]; in the combination 5n + RFP
  MIC90 combined: 0,00098 µM

## NNC(=O)c1ccncc1 [INH, isoniazid]
[12]
  IC50: > 729 µM
[1]
  MIC90: 0.95 µM (≈ 0.13 µg/mL)
  CIM90 Mtb H37Rv: 0,95 ± 0,43 μM
[2]
  CIM90 CF 105: > 182,30 μM
[13]
  MIC90: > 500 µM
[4]
  CIM90 CF 162: > 182,30 μM
[14]
  CIM90 CF 61: > 182,30 μM
[15]
  IC50: > 729 µM
[16]
  MIC90: > 500 µM
[5]
  CIM90 M. smegmatis: 2,0 ± 0,50 μM
[17]
  MIC90: > 500 µM
[19]
  MIC90: > 500 µM
[6]
  CIM90 CF 171: > 182,30 μM
[7]
  CIM90 CF 48: > 182,30 μM
[8]
  CIM90 CF 165: 71,56 ± 24,71 μM
[22]
  MIC90: > 500 µM
[24]
  MIC90: > 500 µM
[25]
  MIC90: > 500 µM
[9]
  CIM90 CF 81: > 182,30 μM
[10]
  CIM90 CF 169: > 182,30 μM
[26]
  MIC90: > 500 µM
[27]
  MIC90: > 500 µM
[28]
  MIC90: > 500 µM

## NCC[C@H](O)C(=O)N[C@@H]1C[C@H](N)[C@@H](O[C@H]2O[C@H](CN)[C@@H](O)[C@H](O)[C@H]2O)[C@H](O)[C@H]1O[C@H]1O[C@H](CO)[C@@H](O)[C@H](N)[C@H]1O [AMK, amikacin]
[1]
  CIM90 Mtb H37Rv: 3,0 ± 1,00 μM
[2]
  CIM90 CF 105: 7,54 ± 11,48 μM
[3]
  CIM90 M. bovis: 1,5 ± 0,50 μM
[4]
  CIM90 CF 162: > 42,69 μM
[14]
  CIM90 CF 61: > 42,69 μM
[5]
  CIM90 M. smegmatis: 6,0 ± 2,00 μM
[6]
  CIM90 CF 171: 0,24 ± 0,10 μM
[7]
  CIM90 CF 48: 12,27 ± 6,77 μM
[8]
  CIM90 CF 165: 5,33 ± 0,95 μM
[9]
  CIM90 CF 81: 19,52 ± 12,55 μM
[10]
  CIM90 CF 169: 0,36 ± 0,11 μM
